# Laboratory results taken from patent US9233979B2, “Compounds that are ERK inhibitors” (Merck Sharp & Dohme Corp., priority 2012, dated 2016).
# Target: phosphorylated active hERK2 enzyme (Homo sapiens (Human), UniProt P28482)
# Test: Active Human ERK2 (hERK2) Activity Assay (IMAP-FP)
# Assay type: biochemical
# Settings: Table 6, 0.5 nM hERK2, 30 μM ATP, 10 point titration, read-out: AERK2 IC50
# Method in brief: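 IMAP detection beads in buffer with 24 mM NaCl stopped the reaction, and fluorescence polarization was read after 60 min binding.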
# phosphorylated active hERK2 enzyme, sequence (P28482 whole entry): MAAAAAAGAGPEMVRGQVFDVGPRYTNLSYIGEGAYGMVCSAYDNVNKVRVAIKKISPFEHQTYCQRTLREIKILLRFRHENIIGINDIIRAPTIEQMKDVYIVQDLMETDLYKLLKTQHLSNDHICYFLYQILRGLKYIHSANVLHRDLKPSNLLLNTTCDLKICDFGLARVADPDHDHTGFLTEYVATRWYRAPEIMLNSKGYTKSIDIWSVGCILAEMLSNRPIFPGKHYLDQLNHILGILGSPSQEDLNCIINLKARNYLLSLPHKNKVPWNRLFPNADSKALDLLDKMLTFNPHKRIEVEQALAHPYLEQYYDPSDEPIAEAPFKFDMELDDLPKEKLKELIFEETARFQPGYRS
row,Compound,IC50
1,"COC[C@@H](NC(=O)Nc1cc2[nH]nc(NCC(F)(F)F)c2cn1)c1ccccc1 [Example 342, 1-[(1S)-2-methoxy-1-phenylethyl]-3-{3-[(2,2,2-trifluoro-ethyl)amino]-1H-pyrazolo[4,3-c]-pyridin-6-yl}urea]",0.9 nM
2,"CNc1n[nH]c2cc(NC(=O)N[C@H](C)c3ccc(Cl)cc3)ncc12 [Example 343, 1-[(1R)-1-(4-chlorophenyl)ethyl]-3-[3-(methyl-amino)-1H-pyrazolo[4,3-c]-pyridin-6-yl]urea]",7.8 nM
3,"CC[C@@H](NC(=O)Nc1cc2[nH]nc(N3CCCC3)c2cn1)c1ccccn1 [Example 344, 1-[(1R)-1-pyridin-2-ylpropyl]-3-(3-pyrrolidin-1-yl-1H-pyrazolo[4,3-c]-pyridin-6-yl)urea]",1020 nM
4,"CC[C@H](NC(=O)Nc1cc2[nH]nc(N3CCCC3)c2cn1)c1ccccn1 [Example 345, 1-[(1S)-1-pyridin-2-ylpropyl]-3-(3-pyrrolidin-1-yl-1H-pyrazolo[4,3-c]-pyridin-6-yl)urea]",13.8 nM
5,"CCN(C(C)=O)c1n[nH]c2cc(NC(=O)N[C@H](C)c3ccccc3)ncc12 [Example 350, N-ethyl-N-[6-({[(1R)-1-phenyl-ethyl]carbamoyl}-amino)-1H-pyrazolo[4,3-c]-pyridin-3-yl]-acetamide]",33.3 nM
6,"Nc1n[nH]c2cc(NC(=O)N[C@H](COC(F)F)c3ccccc3)ncc12 [Example 352, 1-(3-amino-1H-pyrazolo[4,3-c]-pyridin-6-yl)-3-[(1S)-2-(difluoromethoxy)-1-phenylethyl]urea]",1.2 nM
7,"CCNc1n[nH]c2cc(NC(=O)N[C@H](COC(F)F)c3ccccc3)ncc12 [Example 353, 1-[(1S)-2-(difluoromethoxy)-1-phenylethyl]-3-[3-(ethylamino)-1H-pyrazolo[4,3-c]pyridin-6-yl]urea]",0.6 nM
8,"CSC[C@@H](NC(=O)Nc1cc2[nH]nc(N)c2cn1)c1ccccc1 [Example 357, 1-(3-amino-1H-pyrazolo[4,3-c]-pyridin-6-yl)-3-[(1S)-2-(methylsulfanyl)-1-phenylethyl]urea]",1.4 nM
9,"CCNc1n[nH]c2cc(NC(=O)N[C@H](CSC)c3ccccc3)ncc12 [Example 358, 1-[3-(ethylamino)-1H-pyrazolo[4,3-c]pyridin-6-yl]-3-[(1S)-2-(methylsulfanyl)-1-phenylethyl]urea]",0.8 nM
10,"Nc1n[nH]c2c(F)c(NC(=O)N[C@H](COC(F)F)c3ccccc3)ncc12 [Example 362, 1-(3-amino-7-fluoro-1H-pyrazolo[4,3-c]-pyridin-6-yl)-3-[(1S)-2-(difluoromethoxy)-1-phenylethyl]urea]",1.3 nM
11,"Nc1n[nH]c2c(Cl)c(NC(=O)N[C@H](COC(F)F)c3ccccc3)ncc12 [Example 363, 1-(3-amino-7-chloro-1H-pyrazolo[4,3-c]pyridin-6-yl)-3-[(1S)-2-(difluoromethoxy)-1-phenylethyl]urea]",52.2 nM
12,"CC(=O)Nc1n[nH]c2cc(NC(=O)N[C@H](COC(F)F)c3ccccc3)ncc12 [Example 364, N-[6-({[(1S)-2-(difluoromethoxy)-1-phenylethyl]-carbamoyl}amino)-1H-pyrazolo[4,3-c]pyridin-3-yl]-acetamide]",0.3 nM
13,"C[C@@H](O)[C@@H](NC(=O)Nc1cc2[nH]nc(N3CCC(F)(F)CC3)c2cn1)c1ccc(F)cc1 [Example 365, 1-[3-(4,4-difluoropiperidin-1-yl)-1H-pyrazolo[4,3-c]pyridin-6-yl]-3-[(1S,2R)-1-(4-fluorophenyl)-2-hydroxypropyl]urea]",0.9 nM
14,"CC(C)(O)[C@@H](NC(=O)Nc1cc2[nH]nc(N3CCC(F)(F)CC3)c2cn1)c1ccccc1 [Example 366, 1-[3-(4,4-difluoropiperidin-1-yl)-1H-pyrazolo[4,3-c]pyridin-6-yl]-3-[(1S)-2-hydroxy-2-methyl-1-phenylpropyl]urea]",0.4 nM
15,"CC(C)(O)[C@@H](NC(=O)Nc1cc2[nH]nc(N3CC(F)(F)C3)c2cn1)c1ccccc1 [Example 367, 1-[3-(3,3-difluoro-azetidin-1-yl)-1H-pyrazolo[4,3-c]-pyridin-6-yl]-3-[(1S)-2-hydroxy-2-methyl-1-phenylpropyl]urea]",0.6 nM

# Next, values leading:
row,IC50,Compound
1,0.4 nM,"COC[C@@H](NC(=O)Nc1cc2[nH]nc(NC3CCC3)c2cn1)c1ccccc1 [Example 346, 1-[3-(cyclobutyl-amino)-1H-pyrazolo[4,3-c]-pyridin-6-yl]-3-[(1S)-2-methoxy-1-phenylethyl]urea]"
2,18.3 nM,"C[C@@H](NC(=O)Nc1cc2[nH]nc(NCC(=O)N(C)C)c2cn1)c1ccccc1 [Example 347, N,N-dimethyl-N~2~-[6-({[(1R)-1-phenylethyl]-carbamoyl}-amino)-1H-pyrazolo[4,3-c]-pyridin-3-yl]-glycinamide]"
3,3.1 nM,"C[C@@H](NC(=O)Nc1cc2[nH]nc(NCCC(=O)N(C)C)c2cn1)c1ccccc1 [Example 348, N,N-dimethyl-N~3~-[6-({[(1R)-1-phenylethyl]-carbamoyl}amino)-1H-pyrazolo[4,3-c]pyridin-3-yl]-beta-alaninamide]"
4,484 nM,"CC(=O)N(C)c1n[nH]c2cc(NC(=O)N[C@H](C)c3ccccc3)ncc12 [Example 349, N-methyl-N-[6-({[(1R)-1-phenyl-ethyl]carbamoyl}-amino)-1H-pyrazolo[4,3-c]-pyridin-3-yl]-acetamide]"
5,88 nM,"C[C@@H](NC(=O)Nc1cc2[nH]nc(NC(C)(C)C)c2cn1)c1ccccc1 [Example 351, 1-[3-(tert-butylamino)-1H-pyrazolo[4,3-c]-pyridin-6-yl]-3-[(1R)-1-phenylethyl]urea]"
6,2.2 nM,"C[C@H](Nc1n[nH]c2cc(NC(=O)N[C@H](C)c3ccccc3)ncc12)C(F)F [Example 354, 1-(3-{[(1S)-2,2-difluoro-1-methyl-ethyl]amino}-1H-pyrazolo[4,3-c]-pyridin-6-yl)-3-[(1R)-1-phenylethyl]urea]"
7,2.9 nM,"C[C@@H](NC(=O)Nc1cc2[nH]nc(N[C@H](C)C(F)F)c2cn1)c1ccccc1 [Example 355, 1-(3-{[(1R)-2,2-difluoro-1-methyl-ethyl]amino}-1H-pyrazolo[4,3-c]-pyridin-6-yl)-3-[(1R)-1-phenylethyl]urea]"
8,54.1 nM,"C[C@@H](NC(=O)Nc1cc2[nH]nc(NC3(C)CCC3)c2cn1)c1ccccc1 [Example 356, 1-{3-[(1-methylcyclo-butyl)amino]-1H-pyrazolo[4,3-c]-pyridin-6-yl}-3-[(1R)-1-phenylethyl]urea]"
9,1.2 nM,"C[C@@H](NC(=O)Nc1cc2[nH]nc(NC3CCSC3)c2cn1)c1ccccc1 (stereo partly drawn) [Example 359, 1-[(1R)-1-phenylethyl]-3-[3-(tetrahydrothiophen-3-ylamino)-1H-pyrazolo[4,3-c]-pyridin-6-yl]urea]"
10,2.6 nM,"C[C@@H](NC(=O)Nc1cc2[nH]nc(NC3CC[S+]([O-])C3)c2cn1)c1ccccc1 (stereo partly drawn) [Example 360, 1-{3-[(1-oxidotetrahydrothio-phen-3-yl)amino]-1H-pyrazolo[4,3-c]pyridin-6-yl}-3-[(1R)-1-phenylethyl]urea]"
11,385 nM,"COCC(C)(C)Nc1n[nH]c2cc(NC(=O)N[C@H](C)c3ccccc3)ncc12 [Example 361, 1-{3-[(2-methoxy-1,1-dimethylethyl)-amino]-1H-pyrazolo[4,3-c]-pyridin-6-yl}-3-[(1R)-1-phenylethyl]urea]"
